Patent US20150087627A1, “COMBINATION OF KINASE INHIBITORS AND USES THEREOF” (Intellikine LLC, priority 2011, published 2015)

Tests used:
[1] = system: MDA-MB-361, MDA-MB-453 and SKBr3 breast cancer cells; assay: Western blot of PI3K pathway in cell lines with elevated PI3K α activity (FIG. 11); format: cell-based; conditions: cell lines with elevated PI3K α activity: MDA-MB-361, MDA-MB-453 (PIK3CA mutation), SKBr3 (HER2)
[2] = Plasma insulin in nude mice (Example 41); format: in vivo, Mus musculus; conditions: 120 minutes after the last dose (Day 28)
Experimental: Insulin was measured using Mesoscale Discovery's Mouse/Rat Insulin Kit (Rockville, Md., USA). Plasma samples collected at 120 minutes post last dose were thawed on ice and reagents from the kit were brought to room temperature. 150 μL of Blocker A Solution was added to each well, the plates were covered, and then incubated on a plate shaker (300-1000 rpm) for 1 hour at room temperature. After the first incubation, the wells were washed three times with phosphate buffered saline+Tween 20 (PBS-T), and then 40 μL of 1× Detection Antibody Solution followed by 10 μL of unknown neat samples or standards were added to the wells in duplicate. The plate was then covered and incubated on a plate shaker (300-1000 rpm) for 2 hours at room temperature. Following the second incubation, the wells were washed three times with PBS-T, and then 150 μL of 1× Read Buffer T was added to each well. The plates were immediately analyzed on the SECTOR Imager using the MSD Discovery Workbench software (Meso Scale Discovery). A 4-parameter logisitic model was utilized by the software to determine the concentrations of the unknown samples based on the standard curve it generated.

[3] = system: PI3 kinase signaling pathway in MDA-MB-361, HCC-1419, NCI-H1048; assay: Cellular signaling immunoblot in human tumor cell lines; format: cell-based; conditions: Compound B 5-100 nM, Compound A 1 and 3 μM, 2 or 24 hours, Western blot, FIG. 15
Experimental: Compound A was synthesized at Intellikine and was supplied as a stock of 10 mM in 100% DMSO and diluted in the respective cell line's growth media.
Prior to treatment, cells were plated at 2×10^5 cells/well in 12-well plates in normal growth media and grown to 80% confluence.
Media was aspirated, cells were washed with 1×PBS, Ice cold 1× Cell Lysis Buffer was prepared from 10× stock and 100 μM 4-(2-Aminoethyl)benzenesulfonyl fluoride hydrochloride (AEBSF) and 1 mM sodium orthovanadate […] was added. Cells were lysed by adding 1× Cell Lysis Buffer (100 μL per well of 12-well plate of cells). Cells incubated on ice for 20 to 30 minutes to allow complete lysis, and lysates were transferred to microcentrifuge tubes, sonicated for 10 seconds, and subjected to microcentrifugation at 14,000×g for 10 minutes at 4° C. Cleared supernatants were transferred to fresh tubes, and stored at −20° C. for Western blot analysis. […] Molecular weight markers were loaded, the gel electrophoresed at 200V for 40 minutes.
The gels were electrotransferred to nitrocellulose membranes, and incubated in blocking buffer (Tris buffered saline plus 0.5% Tween-20 (TBS/T)+5% bovine serum albumin (BSA)) for 1 hour at room temperature. […]

[4] = system: anti-TNP antibody production; assay: TNP-Ficoll T-cell independent B-cell activation assay; format: in vivo, mice; conditions: 30, 60 or 120 mg/kg for 7 days, FIG. 8
Experimental: To test the effects of the compounds of the present invention in suppressing T cell independent antibody production, the TNP-Ficoll B-cell activation assay is used as described herein. Compounds of the present invention are dissolved in an appropriate vehicle (e.g. 5% 1-methyl-2-pyrrolidinone, 85% polyethylene glycol 400, 10% Solutor). Compounds are administered orally approximately 1 hr before TNP-Ficoll treatment to 4-10 week old mice. To study the effects of the compounds on B-cell activation, one set of mice are grouped according to the following table:
Four animals in group 1, and eight animals in groups 2 to 7 are euthanized in CO2 2 hours after the last compound administration on day 7. […]
Serum samples are analyzed for anti-TNP antibody titers by ELISA as described herein. […] HRP substrate (200 μl ABTS solution+30% H2O2+10 ml citrate buffer) is added to each well at 100 μl/well, incubated 2-20 minutes in the dark and the amount of anti-TNP IgG3 is determined spectrophotometrically at 405 nm. Similarly, anti-TNP IgM and total anti-TNP Ab are determined using anti-mouse IgM-HRP and anti-mouse Ig-HRP respectively.
Antibody production was measured using ELISA and plotted as a percentage of control group that were treated with vehicle.

SMILES: Nc1nc2cc(-c3ccc4ncc(C(=O)N5CCOCC5)n4c3)ccc2o1 [Compound A]
- inhibition of the PI3K pathway [1]: inhibition of the PI3K pathway
- Mean Plasma Insulin at 2 hr. ([2]; 60 mg/kg QD): 0.7 ng/mL
- Plasma Insulin Fold Over Control ([2]; 60 mg/kg QD): 1.47 fold
- Mean Plasma Insulin at 2 hr. ([2]; 70 mg/kg QD 3on/4off): 1.51 ng/mL
- Plasma Insulin Fold Over Control ([2]; 70 mg/kg QD 3on/4off): 3.16 fold
- Mean Plasma Insulin at 2 hr. ([2]; 140 mg/kg QD 3on/4off): 2.39 ng/mL
- Plasma Insulin Fold Over Control ([2]; 140 mg/kg QD 3on/4off): 5.01 fold
- Mean Plasma Insulin at 2 hr. ([2]; 210 mg/kg QW): 3.96 ng/mL
- Plasma Insulin Fold Over Control ([2]; 210 mg/kg QW): 8.29 fold
- inhibition of phosphorylation of downstream targets AKT, S6, 4E-BP1 [3]: potently inhibited
- B cell function in vivo (antibody production, ELISA) [4]: not

SMILES: CC(C)n1nc(-c2ccc3oc(N)nc3c2)c2c(N)ncnc21 [Compound B]
- Mean Plasma Insulin at 2 hr. ([2]; 0.3 mg/kg QD): 3.74 ng/mL
- Mean Plasma Insulin at 2 hr. ([2]; 1.0 mg/kg QD 3on/4off): 2.83 ng/mL
- Mean Plasma Insulin at 2 hr. ([2]; 3.0 mg/kg QW): 5.94 ng/mL
- inhibition of phosphorylation of downstream targets AKT, S6, 4E-BP1 [3]: potently inhibited
